# Values of other authors, collected in US10561625B2, “Methods of treatment using sustained release sotalol formulations” (The Roshni Singh 2015 Trust, priority 2004, dated 2020).
# Structures can show the parent of a compound that is named as a salt.
# Experiments:
# [1] = not given; remark: listed apart in the source
Structure (SMILES),elimination (exclusively renal) half-life (administered twice daily) [h],peak plasma concentration (time) (after a dose of the current formulation) [h],mean elimination half-life (current formulation),bioavailability (in vivo) [%],"absorbed after oral ingestion (oral, no first-pass hepatic metabolism) [%]",solubility in water [1],plasma half-life (in vivo) [h]
"CC(C)NCC(O)c1ccc(NS(C)(=O)=O)cc1 (racemic) [Sotalol, 4′-(2-isopropylaminoethyl-1-hydroxy) methanesulphonanilide hydrochloride]",8 to 12,2 to 3,about 12 hours,100,100,freely soluble in water,–
COCCc1ccc(OCC(O)CNC(C)C)cc1 (centres unmarked) [Metoprolol],–,–,–,–,–,freely soluble in water,2.5 to 9.5
